Data taken from patent US4496655A, “Process for the production of tyramine oxidase” (Toyo Jozo Kabushiki Kaisha, priority 1981, dated 1985).
Read-outs that look alike come from different tables or passages of the source.

What was measured:
tyramine oxidase [1] = assay: Effect of various substances on the activity of tyramine oxidase; type: biochemical, Arthrobacter sp. B-0813
Experimental: (§1) An enzyme solution (0.05 ml) is added to a reaction mixture (0.5 ml) consisting of the following, and the volume is increased to 1.0 ml by adding water and the mixture is incubated at 37° C. for 10 minutes.
(§2) Water (0.1 ml) is added in place of enzyme solution as a control. The reaction mixture is measured at 490 nm.
(§3) Enzyme activity is calculated by the following equation: [formula] wherein Δ490 nm is the absorption value at Δ490 nm for 10 minutes, and f is the dilution ratio.

tyramine oxidase [2] = assay: Substrate specificity of tyramine oxidase; type: biochemical, Arthrobacter sp. B-0813; design: Relative activity (%) as substrate: concentration or dose not given beside the values; conditions: for Relative activity (%) as substrate: substrate added to the reaction mixture, tyramine = 100.0
Experimental: as §1, §2, §3
Substrate specificity was measured by adding various substrates to the reaction mixture.

tyramine oxidase [3] = assay: Km-value of tyramine oxidase; type: biochemical, Arthrobacter sp. B-0813; conditions: substrate tyramine
Experimental: as §1

[4] = tested on: Arthrobacter sp. B-0813 FERM-P No. 6240; type: cell-based; conditions: arthrobacter culture
Experimental: A medium (100 ml, pH 7.5) comprising by weight soybean oil 0.8%, corn steep liquor 1.0%, meat extract 0.1%, polypeptone 1.0%, NaCl 0.3% and β-phenylethylamine 0.15% was put into a 500 ml Erlenmeyer flask and sterilized at 120° C. for 20 minutes. Arthrobacter sp. B-0813 FERM-P No. 6240 was inoculated into the medium and the mixture was cultured at 30° C. for 20 hours to prepare a seed culture. The medium containing the same components (20 lit.) together with added 0.2% of antifoam agent (silicone AF-145), (Asahi Chem.) was poured into a 30 lit. jar fermenter and the above two flasks of seed culture were inoculated therein, then the medium was aerobically cultured with agitation at 250 rpm and with 20 lit./min. aeration for 20 hours. The tyramine oxidase activity of the cultured broth was 1.3 U/ml.
When tyramine or butylamine was added to the medium, a more than 200-fold increase in the yield of enzyme was observed as compared with no addition of these amines. The amount of such addition is 0.1-0.2%, preferably 0.15%. The culturing temperature is generally 25°-35° C. and the culturing time is 10-30 hours.

[5] = amount added 5 mM, control (no addition) = 100.0
[6] = amount added 0.025 mM, control (no addition) = 100.0

[Ba+2].[Cl-].[Cl-] [BaCl2]
Relative Activity (%) (tyramine oxidase [1]; [5]): 96.6%

NCc1ccccc1 [Benzylamine]
Relative activity (%) as substrate (tyramine oxidase [2]): 0.0%

[Ca+2].[Cl-].[Cl-] [CaCl2]
Relative Activity (%) (tyramine oxidase [1]; [5]): 86.2%

CCCCCCCCCCCCCCCC[N+](C)(C)C.[Cl-] [Cetyltrimethylammonium chloride]
Relative Activity (%) (tyramine oxidase [1]; [6]): 0.0%

[Cl-].[Cl-].[Co+2] [CoCl2]
Relative Activity (%) (tyramine oxidase [1]; [5]): 86.2%

O=C(O)CN(CCN(CC(=O)O)CC(=O)O)CC(=O)O [EDTA]
Relative Activity (%) (tyramine oxidase [1]): 100.0%

CCN [Ethylamine]
Relative activity (%) as substrate (tyramine oxidase [2]): 0.0%

Cc1cc2nc3c(=O)[nH]c(=O)nc-3n(C[C@H](O)[C@H](O)[C@H](O)COP(=O)(O)OP(=O)(O)OC[C@H]3O[C@@H](n4cnc5c(N)ncnc54)[C@H](O)[C@@H]3O)c2cc1C [FAD]
Relative Activity (%) (tyramine oxidase [1]; amount added 0.1 mM, control (no addition) = 100.0): 75.4%

Cc1cc2nc3c(=O)[nH]c(=O)nc-3n(C[C@H](O)[C@H](O)[C@H](O)COP(=O)(O)O)c2cc1C [FMN, flavin mononucleotide]
Effect of addition on the activity of the enzyme (in words) (tyramine oxidase [1]): increases the activity | Relative Activity (%) (tyramine oxidase [1]; amount added 0.01 mM, control (no addition) = 100.0): 108.8%

[Cl-].[Li+] [LiCl]
Relative Activity (%) (tyramine oxidase [1]; [5]): 82.8%

CN [Methylamine]
Relative activity (%) as substrate (tyramine oxidase [2]): 0.0%

[Cl][Mn][Cl] [MnCl2]
Relative Activity (%) (tyramine oxidase [1]; [5]): 82.8%

Cl.N [NH4 Cl]
Relative Activity (%) (tyramine oxidase [1]; [5]): 96.6%

[Na+].[Na+].[O]=[Mo](=[O])([O-])[O-] [NaMoO4]
Relative Activity (%) (tyramine oxidase [1]; [5]): 39.7%

[N-]=[N+]=[N-].[Na+] [NaN3]
Relative Activity (%) (tyramine oxidase [1]; [5]): 98.3%

NCCc1ccc(O)cc1 [Tyramine, p-hydroxyphenylethylamine]
Activity of the enzyme on the substrate (in words) (tyramine oxidase [2]): specific activity | Relative activity (%) as substrate (tyramine oxidase [2]): 100.0% | Km (tyramine oxidase [3]): 27 µM | Increase in the yield of enzyme compared with no addition of these amines [4]: more than 200 fold

CCCCN [n-butylamine]
Activity of the enzyme on the substrate (in words) (tyramine oxidase [2]): activity | Relative activity (%) as substrate (tyramine oxidase [2]): 45.3% | Increase in the yield of enzyme compared with no addition of these amines [4]: more than 200 fold

O=C(O)c1cc[c]([Hg][Cl])cc1 [p-chloromercuribenzoate (PCMB), p-chloromercuribenzoate]
Relative Activity (%) (tyramine oxidase [1]; amount added 0.2 mM, control (no addition) = 100.0): 79.3%

NCCc1ccc(Cl)cc1 [p-chlorophenylethylamine]
Activity of the enzyme on the substrate (in words) (tyramine oxidase [2]): activity | Relative activity (%) as substrate (tyramine oxidase [2]): 47.9%

NCCc1ccccc1 [β-phenylethylamine]
Activity of the enzyme on the substrate (in words) (tyramine oxidase [2]): activity | Relative activity (%) as substrate (tyramine oxidase [2]): 54.7%

Laurylbenzene sulfonate [Laurylbenzene sulfonate (LBS)]
Relative Activity (%) (tyramine oxidase [1]; amount added 0.05 mM, control (no addition) = 100.0): 63.9%

Triton X-100
Relative Activity (%) (tyramine oxidase [1]; [6]): 96.7%
